Values joined by “and” are separate entries in the source; they are usually repeats but may differ in a detail not shown here. Identical values can stand only once. Toxic doses and inconclusive results are not listed. No stated cut-off is given here; in the data, active means T/C of 150% or more; inactive means T/C below 125%.
Test system: L1210 leukemia ip in BDF1 mice, survival T/C
Assay: NCI In Vivo Anticancer Drug Screen. Data for tumor model L1210 Leukemia (intraperitoneal) in B6D2F1 (BDF1) mice
Settings: endpoint: mean survival time, higher = longer survival
Summary of the method: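 Antitumor effect is assessed in tumor-bearing animals. Survival in the compound arm is compared with a vehicle-dosed control arm and expressed as their quotient.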

[1] = dose: 100.0 mg/kg/injection, schedule: Q01DX001 (ip), vehicle: saline
[2] = dose: 200.0 mg/kg/injection, schedule: Q01DX001 (ip), vehicle: saline
[3] = dose: 400.0 mg/kg/injection, schedule: Q01DX001 (ip), vehicle: saline
[4] = dose: 100.0 mg/kg/injection, schedule: Q01DX009 (ip), vehicle: Klucel (hydroxypropylcellulose) (HPC)
[5] = dose: 100.0 mg/kg/injection, schedule: Q04DX003 (ip), vehicle: Klucel (hydroxypropylcellulose) (HPC)
[6] = dose: 200.0 mg/kg/injection, schedule: Q01DX009 (ip), vehicle: Klucel (hydroxypropylcellulose) (HPC)
[7] = dose: 200.0 mg/kg/injection, schedule: Q04DX003 (ip), vehicle: Klucel (hydroxypropylcellulose) (HPC)
[8] = dose: 100.0 mg/kg/injection, schedule: Q04DX003 (ip), vehicle: saline with Tween-80
[9] = dose: 200.0 mg/kg/injection, schedule: Q04DX003 (ip), vehicle: saline with Tween-80
[10] = dose: 400.0 mg/kg/injection, schedule: Q04DX003 (ip), vehicle: saline with Tween-80
[11] = dose: 100.0 mg/kg/injection, schedule: Q01DX009 (ip), vehicle: saline
[12] = dose: 100.0 mg/kg/injection, schedule: Q04DX003 (ip), vehicle: saline
[13] = dose: 200.0 mg/kg/injection, schedule: Q01DX009 (ip), vehicle: saline
[14] = dose: 200.0 mg/kg/injection, schedule: Q04DX003 (ip), vehicle: saline
[15] = dose: 400.0 mg/kg/injection, schedule: Q04DX003 (ip), vehicle: Klucel (hydroxypropylcellulose) (HPC)
[16] = dose: 400.0 mg/kg/injection, schedule: Q01DX009 (ip), vehicle: Klucel (hydroxypropylcellulose) (HPC)
[17] = dose: 400.0 mg/kg/injection, schedule: Q04DX003 (ip), vehicle: saline

Measured: T/C

C/C=C\C1OC1(C)c1cc(=O)c2c(C)cc3c(c2o1)C(=O)c1c(O)c(C2CC(C)(N(C)C)C(OC(C)=O)C(C)O2)cc(C2CC(N(C)C)C(O)C(C)O2)c1C3=O (configuration not stated)
inactive: dose: 0.35 mg/kg/injection, schedule: Q01DX009 (ip), vehicle: saline with Tween-80 103 % of control | dose: 0.7 mg/kg/injection, schedule: Q01DX009 (ip), vehicle: saline with Tween-80 102 % of control | dose: 1.4 mg/kg/injection, schedule: Q01DX009 (ip), vehicle: saline with Tween-80 96 % of control | dose: 2.8 mg/kg/injection, schedule: Q01DX009 (ip), vehicle: saline with Tween-80 88 % of control

OCCN1CCNCC1
inactive: [1] 105 % of control | [2] 105 % of control | [3] 100 % of control

C=C(Br)CN(CCCC)C(C)=O
inactive: [4] 100 % of control | [5] 103 % of control | [6] 108 % of control | [7] 100 % of control and 92 % of control

O=[N+]([O-])c1ccc2c(c1)c(-c1cccc3ccccc13)nc1ccccc12
inactive: [8] 95 % of control | [9] 93 % of control | [10] 91 % of control

COc1cccc(S(C)(=O)=O)c1
inactive: dose: 75.0 mg/kg/injection, schedule: Q01DX009 (ip), vehicle: saline 105 % of control | dose: 75.0 mg/kg/injection, schedule: Q04DX003 (ip), vehicle: saline 101 % of control | dose: 150.0 mg/kg/injection, schedule: Q01DX009 (ip), vehicle: saline 97 % of control | dose: 150.0 mg/kg/injection, schedule: Q04DX003 (ip), vehicle: saline 101 % of control | dose: 300.0 mg/kg/injection, schedule: Q01DX009 (ip), vehicle: saline 92 % of control | dose: 300.0 mg/kg/injection, schedule: Q04DX003 (ip), vehicle: saline 100 % of control

COC(=O)c1ccccc1NC(=O)Nc1ccccc1C(F)(F)F
inactive: dose: 100.0 mg/kg/injection, schedule: Q01DX009 (ip), vehicle: saline with Tween-80 89 % of control | dose: 200.0 mg/kg/injection, schedule: Q01DX009 (ip), vehicle: saline with Tween-80 89 % of control | dose: 400.0 mg/kg/injection, schedule: Q01DX009 (ip), vehicle: saline with Tween-80 86 % of control

CCN(CC)CCCC#CCN1CCOCC1
inactive: dose: 50.0 mg/kg/injection, schedule: Q01DX009 (ip), vehicle: saline 101 % of control | [11] 93 % of control | [12] 103 % of control | [13] 93 % of control | [14] 109 % of control

CCCCCCCCCCCCN=c1nc(N)ccn1C1OC(CO)C(O)C1O (configuration not stated)
inactive: dose: 12.5 mg/kg/injection, schedule: Q01DX005 (ip), vehicle: saline 110 % of control | dose: 25.0 mg/kg/injection, schedule: Q01DX005 (ip), vehicle: saline 116 % of control

COP(=O)(OC)C(OC(=O)C(C)(C)C)=C(C)C
inactive: [8] 98 % of control | [9] 110 % of control | [10] 93 % of control

CCOC(=O)CCN(CCC(=O)OCC)C1CC1c1ccccc1 (configuration not stated)
inactive: [5] 100 % of control | [7] 95 % of control | [15] 100 % of control

CCCC(CCC)=NCCN=C(CCC)CCC
inactive: [11] 97 % of control | [13] 94 % of control

Cc1cccc(C)c1N1C(=O)CC(Sc2ccccc2N)C1=O (configuration not stated)
inactive: [4] 92 % of control | [5] 98 % of control | [6] 88 % of control | [7] 95 % of control | [16] 88 % of control | [15] 93 % of control

CCC(CC)NCCOC(=O)c1ccc(N)cc1
inactive: dose: 75.0 mg/kg/injection, schedule: Q01DX001 (ip), vehicle: saline 100 % of control | dose: 150.0 mg/kg/injection, schedule: Q01DX001 (ip), vehicle: saline 98 % of control

O=c1ccccn1CC1(c2ccccc2)OCCO1
inactive: [4] 98 % of control | [5] 102 % of control | [6] 104 % of control | [7] 96 % of control | [16] 100 % of control | [15] 94 % of control

OCC1OC(Oc2cc(O)cc3[o+]c(-c4cc(O)c(O)c(O)c4)c(OC4(CO)OC(CO)C(O)C4O)cc23)C(O)C(O)C1O (configuration not stated)
inactive: dose: 100.0 mg/kg/injection, schedule: Q01DX001 (ip), vehicle: carboxymethylcellulose (CMC) 95 % of control | dose: 200.0 mg/kg/injection, schedule: Q01DX001 (ip), vehicle: carboxymethylcellulose (CMC) 98 % of control | dose: 400.0 mg/kg/injection, schedule: Q01DX001 (ip), vehicle: carboxymethylcellulose (CMC) 98 % of control

COc1ccc(/C=N\NC(=O)c2ccncc2)cc1
inactive: dose: 50.0 mg/kg/injection, schedule: Q04DX002 (ip), vehicle: Klucel (hydroxypropylcellulose) (HPC) 109 % of control | dose: 100.0 mg/kg/injection, schedule: Q04DX002 (ip), vehicle: Klucel (hydroxypropylcellulose) (HPC) 113 % of control | dose: 200.0 mg/kg/injection, schedule: Q04DX002 (ip), vehicle: Klucel (hydroxypropylcellulose) (HPC) 106 % of control | dose: 400.0 mg/kg/injection, schedule: Q04DX002 (ip), vehicle: Klucel (hydroxypropylcellulose) (HPC) 118 % of control

OCC1C=CCC=C1
inactive: [12] 100 % of control | [14] 98 % of control | [17] 93 % of control

CCCCOP(=S)(Nc1ccccc1)OCCCC
inactive: [5] 107 % of control | [7] 107 % of control | [15] 122 % of control

O=C(O)C1(C(=O)O)CC23CCC2(C1)CC(C(=O)O)(C(=O)O)C3 (configuration not stated)
inactive: [12] 95 % of control | [14] 97 % of control | [17] 103 % of control

COc1ccccc1/C=N\NC(=O)C1CC1
inactive: dose: 15.0 mg/kg/injection, schedule: Q01DX Z (ip), vehicle: carboxymethylcellulose (CMC) 102 % of control | dose: 30.0 mg/kg/injection, schedule: Q01DX Z (ip), vehicle: carboxymethylcellulose (CMC) 97 % of control | dose: 60.0 mg/kg/injection, schedule: Q01DX Z (ip), vehicle: carboxymethylcellulose (CMC) 97 % of control and 101 % of control | dose: 120.0 mg/kg/injection, schedule: Q01DX Z (ip), vehicle: carboxymethylcellulose (CMC) 101 % of control and 102 % of control | dose: 240.0 mg/kg/injection, schedule: Q01DX Z (ip), vehicle: carboxymethylcellulose (CMC) 98 % of control | dose: 480.0 mg/kg/injection, schedule: Q01DX Z (ip), vehicle: carboxymethylcellulose (CMC) 101 % of control | dose: 480.0 mg/kg/injection, schedule: Q01DX Z (oral), vehicle: carboxymethylcellulose (CMC) 106 % of control | dose: 960.0 mg/kg/injection, schedule: Q01DX Z (oral), vehicle: carboxymethylcellulose (CMC) 93 % of control

O=C(CCl)c1ccc(Oc2ccc(C(=O)CCl)cc2)cc1
inactive: dose: 50.0 mg/kg/injection, schedule: Q01DX001 (ip), vehicle: saline 100 % of control | [1] 97 % of control | [2] 97 % of control | [3] 105 % of control

CC1CCCCN1C(=O)Nc1cccc(C(F)(F)F)c1 (configuration not stated)
inactive: dose: 100.0 mg/kg/injection, schedule: Q01DX001 (ip), vehicle: gum acacia 100 % of control and 103 % of control | dose: 100.0 mg/kg/injection, schedule: Q01DX009 (ip), vehicle: gum acacia 107 % of control | dose: 100.0 mg/kg/injection, schedule: Q04DX002 (ip), vehicle: gum acacia 93 % of control | dose: 100.0 mg/kg/injection, schedule: Q04DX003 (ip), vehicle: gum acacia 100 % of control and 101 % of control | dose: 200.0 mg/kg/injection, schedule: Q01DX001 (ip), vehicle: gum acacia 95 % of control and 105 % of control | dose: 200.0 mg/kg/injection, schedule: Q01DX009 (ip), vehicle: gum acacia 106 % of control | dose: 200.0 mg/kg/injection, schedule: Q04DX002 (ip), vehicle: gum acacia 96 % of control and 98 % of control | dose: 200.0 mg/kg/injection, schedule: Q04DX003 (ip), vehicle: gum acacia 95 % of control | dose: 400.0 mg/kg/injection, schedule: Q01DX001 (ip), vehicle: gum acacia 92 % of control and 102 % of control | dose: 400.0 mg/kg/injection, schedule: Q01DX009 (ip), vehicle: gum acacia 102 % of control | dose: 400.0 mg/kg/injection, schedule: Q04DX002 (ip), vehicle: gum acacia 93 % of control and 86 % of control | dose: 400.0 mg/kg/injection, schedule: Q04DX003 (ip), vehicle: gum acacia 98 % of control and 100 % of control

CC1(C)N=C(N)N=C(N)N1c1cccc(OCCCOc2ccc(NC(=O)CBr)cc2)c1
inactive: dose: 45.0 mg/kg/injection, schedule: Q01DX009 (ip), vehicle: saline 104 % of control | dose: 67.0 mg/kg/injection, schedule: Q01DX009 (ip), vehicle: saline 104 % of control | [1] 110 % of control | [11] 102 % of control | [2] 97 % of control

Reference: PubChem BioAssay AID248 (DTP/NCI, 2004)
